Experimental data published in patent US20040248775A1, “Methods for screening inhibitors of apoptosis” (Wyeth, priority 2003, published 2004).

Biological target: T1, His6-NALP1 NBS mutant (G339E, K340A) (Homo sapiens, UniProt Q9C000, G339E/K340A)
T1 construct: made in house; host or cells: COS-7 cells, transient transfection, Ni-NTA purification
T1 sequence (Q9C000 1-1473 G339E/K340A): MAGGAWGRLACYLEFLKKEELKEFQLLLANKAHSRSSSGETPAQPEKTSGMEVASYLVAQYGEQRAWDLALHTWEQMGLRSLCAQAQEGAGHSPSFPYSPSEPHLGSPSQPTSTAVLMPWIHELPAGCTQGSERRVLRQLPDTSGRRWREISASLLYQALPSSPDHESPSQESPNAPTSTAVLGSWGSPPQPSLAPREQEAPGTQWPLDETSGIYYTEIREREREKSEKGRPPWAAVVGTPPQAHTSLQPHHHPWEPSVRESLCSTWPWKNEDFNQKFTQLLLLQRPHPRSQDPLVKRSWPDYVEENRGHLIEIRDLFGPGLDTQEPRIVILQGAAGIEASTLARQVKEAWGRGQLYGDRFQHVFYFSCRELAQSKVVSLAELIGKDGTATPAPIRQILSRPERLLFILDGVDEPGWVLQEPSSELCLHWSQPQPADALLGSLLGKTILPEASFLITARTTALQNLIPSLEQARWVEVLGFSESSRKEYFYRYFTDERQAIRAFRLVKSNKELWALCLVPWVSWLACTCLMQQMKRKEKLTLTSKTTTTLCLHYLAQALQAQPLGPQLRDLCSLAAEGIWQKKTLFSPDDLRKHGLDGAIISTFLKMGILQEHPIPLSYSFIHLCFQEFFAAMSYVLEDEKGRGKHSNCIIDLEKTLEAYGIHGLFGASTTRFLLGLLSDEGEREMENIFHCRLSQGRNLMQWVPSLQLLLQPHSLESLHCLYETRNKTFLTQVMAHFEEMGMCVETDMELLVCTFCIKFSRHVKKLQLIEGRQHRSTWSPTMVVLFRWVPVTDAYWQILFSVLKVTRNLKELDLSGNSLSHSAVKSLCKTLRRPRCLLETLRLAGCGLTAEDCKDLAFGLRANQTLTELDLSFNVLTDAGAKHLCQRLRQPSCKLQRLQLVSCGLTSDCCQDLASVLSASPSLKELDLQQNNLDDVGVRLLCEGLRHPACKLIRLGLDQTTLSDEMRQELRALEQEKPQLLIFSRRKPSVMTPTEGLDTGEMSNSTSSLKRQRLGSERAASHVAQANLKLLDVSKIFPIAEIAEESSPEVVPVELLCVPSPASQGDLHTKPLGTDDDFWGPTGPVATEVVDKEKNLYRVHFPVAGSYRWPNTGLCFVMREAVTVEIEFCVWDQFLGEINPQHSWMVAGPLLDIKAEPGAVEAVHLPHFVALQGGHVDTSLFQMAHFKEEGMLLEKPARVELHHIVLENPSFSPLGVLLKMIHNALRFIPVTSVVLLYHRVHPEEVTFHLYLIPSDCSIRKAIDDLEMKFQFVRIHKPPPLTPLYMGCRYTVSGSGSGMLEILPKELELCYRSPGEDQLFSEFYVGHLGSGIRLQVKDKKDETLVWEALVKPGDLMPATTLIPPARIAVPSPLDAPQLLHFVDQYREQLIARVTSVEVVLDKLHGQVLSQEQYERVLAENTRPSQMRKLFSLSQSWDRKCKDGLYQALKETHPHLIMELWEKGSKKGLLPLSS
Assay: Ni flashplate dATPα35S binding assay, NBS mutant His6-NALP1
Conditions: 8 nM dATPα35S displaced by non-radiolabeled dATP
Protocol: Production of purified NALP-Flashplate binding assay. NALP1 protein for in vitro binding assays was purified from transiently transfected cells. COS-7 cells were plated in DMEM, 10% fetal calf serum with amino acid supplements and antibiotics and allowed to grow to approximately 50% confluency. Large-scale preparations were performed in Cell Factories (NUNC) with approximately 600 μg plasmid DNA. Polyfect transfection reagent (Qiagen) was used as described by the manufacturer. After 24 hours, cells were collected by trypsinization, washed with fresh medium and then with PBS. Cells were lysed by resuspension in 10× cell volume of lysis buffer (140 mM NaCl, 0.1% Triton-X100, 0.1 mM DTT, 20 mM HEPES at pH 7.4 and protease inhibitor cocktail (Roche Diagnostics BmbH)). Lysates were centrifuged at approximately 7400×g for 30 minutes and supernatants were supplemented with glycerol to a final concentration of 10% and stored at −70° C. until purification. Protein concentrations were measured and samples normalized. Extracts were mixed with 1 ml Ni-NTA agarose equilibrated with the same buffer for 1 hour at 4° C. in the tube. Disposable columns were filled with the resin and flow-through collected. […] Reactions were stopped by aspirating solutions and washed once with Buffer B. Plates were counted in a Top Count scintillation counter (Packard).

Nc1ncnc2c1ncn2[C@H]1C[C@H](O)[C@@H](COP(=O)(O)OP(=O)(O)OP(=O)(O)O)O1 [dATP]
specific binding of dATP to NBS mutant NALP1: failed to achieve significant binding
